Test results as given in ChEMBL document CHEMBL1139942, “Geldanamycin derivatives and neuroprotective effect on cultured P19-derived neurons” (Bioorg Med Chem Lett, 2007).
The source made the active and inactive calls. The calls are words filed in the database; no cut-off is given here.

How the values were obtained:
[1] = Cell viability of mouse P19 derived neurons at 1 nM by XTT reduction assay relative to control; format: functional
[2] = Neuroprotective activity against paclitaxel-induced toxicity in mouse P19 derived neurons assessed as cell viability at 1 nM; format: functional; conditions: read-out: Activity
[3] = Therapeutic index, ratio of neurotoxic IC50 to neuroprotective activity for mouse P19 derived neurons
[4] = Neurotoxicity against mouse P19 derived neurons after 18 hrs; format: toxicity
P19 = test: Cytotoxicity against mouse P19 cells after 18 hrs; format: functional, cell-based; conditions: P19, 18 h
Mus musculus [5] = species: Mus musculus; test: Neuroprotective activity against vinblastine-induced toxicity in mouse P19 derived neurons assessed as cell viability at 1 nM after 18 hrs by phase contrast microscope; format: functional
Mus musculus [6] = species: Mus musculus; test: Neuroprotective activity against paclitaxel-induced toxicity in mouse P19 derived neurons assessed as cell viability at 1 nM after 18 hrs by phase contrast microscope; format: functional

## C=CCNC1=C2C[C@@H](C)C[C@H](OC)[C@H](O)[C@@H](C)/C=C(\C)[C@H](OC(N)=O)[C@@H](OC)/C=C\C=C(/C)C(=O)NC(=CC1=O)C2=O
[1]
  Activity: 66%

## CO[C@H]1/C=C\C=C(/C)C(=O)Nc2cc(O)c(O)c(c2O)C[C@@H](C)C[C@H](OC)[C@H](O)[C@@H](C)/C=C(\C)[C@@H]1OC(N)=O
[1]
  Activity: 43%

## COC1=C2C[C@@H](C)C[C@H](OC)[C@H](O)[C@@H](C)/C=C(\C)[C@H](OC(N)=O)[C@@H](OC)/C=C\C=C(/C)C(=O)NC(=CC1=O)C2=O [GELDANAMYCIN]
[2]
  viability at 0.001 µM: 100%
[3]
  selectivity ratio: > 1800
[4]
  IC50 at 18 h: 1.8 µM
[1]
  Activity: 121%
P19
  IC50: 0.1 µM

## CO[C@H]1/C=C\C=C(/C)C(=O)NC2=CC(=O)C(NCc3ccccc3)=C(C[C@@H](C)C[C@H](OC)[C@H](O)[C@@H](C)/C=C(\C)[C@@H]1OC(N)=O)C2=O
[1]
  Activity: 44%

## CCOC1=C2C[C@@H](C)C[C@H](OC)[C@H](O)[C@@H](C)/C=C(\C)[C@H](OC(N)=O)[C@@H](OC)/C=C\C=C(/C)C(=O)NC(=CC1=O)C2=O
[2]
  viability at 0.001 µM: 100%
[4]
  IC50 at 18 h: 1.6 µM
[1]
  Activity: 113%
P19
  IC50: 0.1 µM

## CO[C@H]1/C=C\C=C(/C)C(=O)NC2=CC(=O)C(OCc3ccccc3)=C(C[C@@H](C)C[C@H](OC)[C@H](O)[C@@H](C)/C=C(\C)[C@@H]1OC(N)=O)C2=O
[2]
  viability at 0.001 µM: 100%
[4]
  IC50 at 18 h: > 10 µM
[1]
  Activity: 111%
P19
  IC50: 0.5 µM

## CO[C@H]1/C=C\C=C(/C)C(=O)NC2=CC(=O)C(N)=C(C[C@@H](C)C[C@H](OC)[C@H](O)[C@@H](C)/C=C(\C)[C@@H]1OC(N)=O)C2=O
[1]
  Activity: 85%

## COC1=C2C[C@@H](C)C[C@H](OC)[C@H](O)[C@@H](C)/C=C(\C)[C@H](OC(N)=O)[C@@H](OC)/C=C\C=C(/C)C(=O)NC(=C(OC)C1=O)C2=O
Mus musculus [5]
  Activity: Active
[2]
  viability at 0.001 µM: 120%
[3]
  selectivity ratio: > 10000
Mus musculus [6]
  Activity: Active
[4]
  IC50 at 18 h: > 10 µM
[1]
  Activity: 108%
P19
  IC50: > 10 µM

## CO[C@H]1/C=C\C=C(/C)C(=O)NC2=CC(=O)C(O)=C(C[C@@H](C)C[C@H](OC)[C@H](O)[C@@H](C)/C=C(\C)[C@@H]1OC(N)=O)C2=O
[1]
  Activity: 50%

## CCCOC1=C2C[C@@H](C)C[C@H](OC)[C@H](O)[C@@H](C)/C=C(\C)[C@H](OC(N)=O)[C@@H](OC)/C=C\C=C(/C)C(=O)NC(=CC1=O)C2=O
[2]
  viability at 0.001 µM: 100%
[4]
  IC50 at 18 h: 6.7 µM
[1]
  Activity: 121%
P19
  IC50: 0.2 µM

## CCNC1=C2C[C@@H](C)C[C@H](OC)[C@H](O)[C@@H](C)/C=C(\C)[C@H](OC(N)=O)[C@@H](OC)/C=C\C=C(/C)C(=O)NC(=CC1=O)C2=O
[1]
  Activity: 49%

## CCOC1=C2C[C@@H](C)C[C@H](OC)[C@H](O)[C@@H](C)/C=C(\C)[C@H](OC(N)=O)[C@@H](OC)/C=C\C=C(/C)C(=O)NC(=C(OCC)C1=O)C2=O
[1]
  Activity: 0%

## CO[C@H]1/C=C\C=C(/C)C(=O)NC2=C(NCCCO)C(=O)C(NCCCO)=C(C[C@@H](C)C[C@H](OC)[C@H](O)[C@@H](C)/C=C(\C)[C@@H]1OC(N)=O)C2=O
[1]
  Activity: 0%

## CCCNC1=C2C[C@@H](C)C[C@H](OC)[C@H](O)[C@@H](C)/C=C(\C)[C@H](OC(N)=O)[C@@H](OC)/C=C\C=C(/C)C(=O)NC(=CC1=O)C2=O
[1]
  Activity: 0%

## CNC1=C2C[C@@H](C)C[C@H](OC)[C@H](O)[C@@H](C)/C=C(\C)[C@H](OC(N)=O)[C@@H](OC)/C=C\C=C(/C)C(=O)NC(=C(NC)C1=O)C2=O
[1]
  Activity: 46%

## COC1=C2C[C@@H](C)C[C@H](OC)[C@H](O)[C@@H](C)/C=C(\C)[C@H](OC(N)=O)[C@@H](OC)/C=C\C=C(/C)C(=O)NC(=C(N)C1=O)C2=O
[1]
  Activity: 91%

## CCCNC1=C2C[C@@H](C)C[C@H](OC)[C@H](O)[C@@H](C)/C=C(\C)[C@H](OC(N)=O)[C@@H](OC)/C=C\C=C(/C)C(=O)NC(=C(NCCC)C1=O)C2=O
[1]
  Activity: 0%
